Measurements as given in patent publication US20050169914A1, “Novel functions for decay accelerating factor (DAF) in inflammation” (priority 2003, published 2005).
Where no end group is shown, it is not given here. The star is where a group is joined. Biotin = O=C1N[C@H]2[C@H](CS[C@H]2CCCCC(=O)*)N1

Columns and labels:
surface expressed DAF = assay: DAF suppression in Caco2 cells (immunoprecipitation of surface biotinylated protein); type: cell-based, human; conditions: Caco2, relative to oligonucleotide controls, n=3
Protocol: DAF suppression studies. Caco2 cells were chosen for these experiments because they are more easily transfected than T84 cells. Confluent Caco2 monolayers were dislodged from T175 flasks with trypsin. Cells were washed once in serum-free DMEM. To 100 μl serum free media, 10 μl DAF siRNA ribonucleotide (20 μM each of sense 5′-[…]dTdT-3′ (SEQ ID NO: 31) and antisense 3′-dTd[…]-5′ (SEQ ID NO: 32), synthesized by Xeragon, Inc., Germantown, Md.) or 10 μl phosphorothioate derivatives of DAF antisense oligonucleotide (20 μM; 5′-[…]-3′ (SEQ ID NO: 33), synthesized by Oligo's Etc., Wilsonville, Oreg.) was added. In both cases, a control oligonucleotide (5′-ATG GAG GGC GCC GGC-3′, SEQ ID NO: 34) was used in parallel. To these solutions 10 μl Superfect transfection reagent (Qiagen, Valencia, Calif.) was added. The tubes were vortexed and incubated at room temperature for 10 min to allow transfection complexes formation. Following this incubation, 400 μl of serum containing media was added to the complexes, followed by 800 μl of cell suspension. […]
As a third approach, antisense oligonucleotides and siRNA technologies were utilized to diminish surface expressed DAF and examined the kinetics of PMN migration across such monolayers of epithelia. […] In panels B and C, the influence of siRNA (diamonds), antisense oligonucleotide (squares) on the kinetics of transmigration was assessed. […]

[1] = tested on: PMN transmigration across Caco2 monolayers; assay: Kinetic PMN transmigration across DAF-depleted Caco2 monolayers; type: cell-based, human
Protocol: Transmigration assay. PMN transmigration assays were performed as previously described (Nicholson-Weller et al., 1994, J. Lab. Clin. Med. 123: 485-91). All epithelial experiments were performed in the physiologically-relevant basolateral-to-apical direction (i.e. inverted monolayers), unless otherwise indicated, and all HMVEC transmigration studies were performed in the apical-to-basolateral direction. Briefly, PMN (1×10^6) were added to the upper chambers of transwell inserts in which T84, KB or Caco2 cell monolayers, as indicated, were plated on the opposing side. […] Transmigrated PMN were quantified by assaying for the PMN azurophilic marker myeloperoxidase (MPO), as previously described (Lisanti et al., 1990, J. Memb. Biol. 113: 155-167). […] An aliquot of sample (70 μl) was added to an equal volume of ABTS solution (1 mM ABTS (2.2′-Azino-bis(3-ethylbenzo-thiazoline-6-sulfonic acid), 0.03% H2O2, 100 mM sodium citrate buffer; pH 4.2) in a 96-well plate. The resulting color was quantitated on a plate reader at 405 nm. For kinetic transmigration and post-transmigration adhesion assays, monolayers were removed at the desired time point and placed in a new 24-well plate with HBSS and spun at 50×g for 5 min to dislodge PMN adherent to the monolayer (Liu et al., 2001, J. Biol. Chem. 276: 40156-66). PMN were quantified by MPO assay as stated above. […]

[2] = tested on: OE-1 mAb binding to intact epithelial cell surface protein; assay: Peptide blocking of OE-1 binding, cell surface ELISA on intact T84 cells; conditions: concentration-dependent
CD55 mRNA expression = assay: Hypoxia-induced CD55 mRNA expression in Caco2 cells with transcriptional inhibitor; type: cell-based, human; conditions: DRB 10 μM
Protocol: First, it was determined whether hypoxia-induced CD55 results from increased transcriptional activity. Caco2 cells were subjected to hypoxia in the presence or absence of the transcriptional inhibitor 5,6-dichlorobenzimidazole riboside (DRB, 10 μM) and assessed for changes in CD55 mRNA expression. […] Consequently, increases in CD55 by hypoxia required new mRNA synthesis.

surface of intact PMN = assay: Binding of biotinylated peptide to intact PMN (rhodamine-streptavidin fluorescence); design: species or system human; conditions: peptide 10 μg/ml, 4° C., 1 hr
Protocol: In subsets of experiments, peptides were biotinylated (sulfo-NHS-Biotin, Pierce, Rockford, Ill.), purified by reversed phase HPLC, and tested for binding to PMN. Briefly, PMN (10^7 PMN in 1 ml) were incubated with biotinylated peptide DAF peptide or control peptide (each at 10 μg/ml) at 4° C. for 1 hr. PMN were washed three times in HBSS, and incubated with rhodamine-labeled steptavidin (Roche Diagnostics, Indianapolis, Ind.). Samples were aliquoted on a 96 well plate and fluorescence intensity (excitation, 550 nm; emission, 580 nm), expressed as relative fluorescence units (RFU) was measured on a fluorescent plate reader (Cytofluor™2300, Millipore Inc., Bedford, Mass.).

[3] = tested on: PMN transmigration across epithelial monolayer; assay: Kinetic PMN transmigration assay with DAF mimetic peptides; type: cell-based, human; conditions: for rank order of potency in kinetic PMN transmigration assay: compared to no peptide controls
Protocol: Transmigration assay. PMN transmigration assays were performed as previously described (Nicholson-Weller et al., 1994, J. Lab. Clin. Med. 123: 485-91). All epithelial experiments were performed in the physiologically-relevant basolateral-to-apical direction (i.e. inverted monolayers), unless otherwise indicated, and all HMVEC transmigration studies were performed in the apical-to-basolateral direction. Briefly, PMN (1×10^6) were added to the upper chambers of transwell inserts in which T84, KB or Caco2 cell monolayers, as indicated, were plated on the opposing side. A chemotactic gradient was established by adding n-formyl-methionyl-leucyl-phenylalanine (fMLP) to the lower chambers (1 μM for Caco2 and T84 epithelia and 10 nM for KB cells and HMVEC). PMN transmigration was carried out at 37° C. for 1 hour with KB and HMVEC monolayers and 2 hrs for T84 monolayers. Transmigrated PMN were quantified by assaying for the PMN azurophilic marker myeloperoxidase (MPO), as previously described (Lisanti et al., 1990, J. Memb. Biol. 113: 155-167). Briefly, transmigrated PMN were lysed by the addition of Triton X-100 to a final concentration 0.5%. The samples were acidified with citrate buffer (final concentration 100 mM; pH 4.2). An aliquot of sample (70 μl) was added to an equal volume of ABTS solution (1 mM ABTS (2.2′-Azino-bis(3-ethylbenzo-thiazoline-6-sulfonic acid), 0.03% H2O2, 100 mM sodium citrate buffer; pH 4.2) in a 96-well plate. The resulting color was quantitated on a plate reader at 405 nm. For kinetic transmigration and post-transmigration adhesion assays, monolayers were removed at the desired time point and placed in a new 24-well plate with HBSS and spun at 50×g for 5 min to dislodge PMN adherent to the monolayer (Liu et al., 2001, J. Biol. Chem. 276: 40156-66). PMN were quantified by MPO assay as stated above. Where indicated, polyclonal DAF antisera (a kind gift from Dr. B. Paul Morgan, University of Wales) or control polyclonal platelet-endothelial cell adhesion (PE-CAM, a kind gift from Dr. Joyce Bischoff, Children's Hospital and Harvard Medical School) antisera were used to assess transmigration.
Phage panning of OE-1. The OE-1 binding epitope was analyzed using phage display (Burritt et al., 1998, J. Biol. Chem. 273:24847-52). Briefly, sepharose-coupled OE-1 was incubated with 20-μL aliquots of the random 9-mer LL9 phage library (˜5×10^10 phage) in 1 mL HBSS containing 0.1% bovine serum albumin (phage buffer) for 2 hours at 4° C. or for 1 hour at 20° C. in a 1.5-ml microcentrifuge tube as described previously (Mazzucchelli et al., 1999, Blood 93: 1738-48). Antibody complexes were then washed five times with phage buffer and bound phage were eluted for 5 minutes in 2 mL of 0.1M glycine (pH 2.2) followed by addition of phage buffer containing 0.5% Tween 20 to the remaining cell pellet. After neutralization with Tris buffer pH 8.1, the titer of phage was determined in each fraction by plaque assay according to standard procedures. Phage elutes were then amplified in “starved” K91 E. coli on solid LB agar containing 75 μg/mL kanamycin, purified by precipitation with polyethylene glycol, and resuspended in 600 μL NaCl/HEPES buffer. An aliquot (20 μL) of purified phage was subsequently re-applied to a new aliquot of sepharose-coupled OE-1 for a total of three affinity purification and two amplification steps. Individual phage clones were then isolated, amplified, and the random peptide sequences were deduced after sequencing the unique nucleotide region of the pIII protein. As a control for OE-1-specific selection, parallel phage affinity purification steps were carried out in a 1.5-mL microcentrifuge tube in the absence of OE-1, and a sample of the recovered phage was analyzed by sequencing of the DNA insert. […]

[4] = tested on: OE-1 mAb binding to denatured protein; assay: Peptide blocking of OE-1 binding, western blot of T84 epithelial lysates; conditions: concentration-dependent
Protocol: Immunoblotting experiments. Indicated cells were grown to confluency on 100 mm plastic Petri dishes. The monolayers were lysed for 10 min in 1 ml lysis buffer (150 mM NaCl, 25 mM Tris, pH 8.0, 5 mM EDTA, 2% n-octylglucoside, and 10% mammalian tissue protease inhibitor cocktail; Sigma, St. Louis, Mo.), scraped and collected into microfuge tubes. After spinning at 14,000×g to remove cell debris, the pellet was discarded. Proteins were solublized in non-reducing Laemmli sample buffer and heated to 100° C. for 5 minutes. Samples were resolved on a 10% polyacrylamide gel and transferred to nitrocellulose membranes. The membranes were blocked 1 hr at room temperature in PBS supplemented with 0.2% Tween-20 (PBS-T) and 4% BSA. […] The wash was repeated and proteins were detected by enhanced chemiluminescence.
Phage panning of OE-1. The OE-1 binding epitope was analyzed using phage display (Burritt et al., 1998, J. Biol. Chem. 273:24847-52). […] After neutralization with Tris buffer pH 8.1, the titer of phage was determined in each fraction by plaque assay according to standard procedures. […] As a control for OE-1-specific selection, parallel phage affinity purification steps were carried out in a 1.5-mL microcentrifuge tube in the absence of OE-1, and a sample of the recovered phage was analyzed by sequencing of the DNA insert. […]

siRNA: DAF siRNA ribonucleotide, sense 5′-AAUUCCUGGCGAGAAGGACUCdTdT-3′, antisense 3′-dTdTUUAAGGACCGCUCUUCCUGAG-5′ (sense AAUUCCUGGCGAGAAGGACUCNN; antisense NNUUAAGGACCGCUCUUCCUGAG; chemistry not fully specified; one strand is listed 3' to 5')
decrease in surface expressed DAF (surface expressed DAF): 63±12% | PMN transmigration across treated cells ([1]; Caco2, relative to mock or oligonucleotide control, p<0.025): significantly diminished | apical PMN in DAF-depleted epithelia ([1]; Caco2, p<0.05 by ANOVA): significant increase over time

SPLAQAVRSSSR [scrambled peptide, scrambled control peptide, reference compound]
blocking of OE-1 binding to intact epithelial cell surface protein [2]: but not a scrambled peptide

OC[C@H]1O[C@@H](n2cnc3cc(Cl)c(Cl)cc32)[C@H](O)[C@@H]1O [DRB, 5,6-dichlorobenzimidazole riboside]
decrease in CD55 inducibility by hypoxia (CD55 mRNA expression): 87±7%

Biotin-EVEHWYRSG
fluorescence intensity (binding to surface of intact PMN) (surface of intact PMN): 2,188±383 RFU

EVEHWARSG [Peptide 3]
rank order of potency in kinetic PMN transmigration assay ([3]; 1 mM final concentration): Wild-type>Peptide 2=Peptide 1>Peptide 3

EVEHWYASG [Peptide 4]
effect on PMN transmigration relative to no peptide controls ([3]; 1 mM final concentration): appeared to enhance PMN transmigration

EVEHAYRSG [Peptide 2]
rank order of potency in kinetic PMN transmigration assay ([3]; 1 mM final concentration): Wild-type>Peptide 2=Peptide 1>Peptide 3

AVAHWYRSG [Peptide 1]
rank order of potency in kinetic PMN transmigration assay ([3]; 1 mM final concentration): Wild-type>Peptide 2=Peptide 1>Peptide 3

EVEHWYRSG
blocking of OE-1 binding to denatured protein [4]: blocked OE-1 binding | blocking of OE-1 binding to intact epithelial cell surface protein [2]: blocked OE-1 binding | rank order of potency in kinetic PMN transmigration assay ([3]; 1 mM final concentration): Wild-type>Peptide 2=Peptide 1>Peptide 3 | apical accumulation of PMN ([3]; PMN and epithelial pre-exposure to increasing peptide concentrations, p<0.025): increased apical accumulation of PMN | PMN transmigration ([3]; PMN and epithelial pre-exposure to increasing peptide concentrations, p<0.05): diminished PMN transmigration
